Patent US20250368633A1, “AZEPINE FUSED RING COMPOUND AS RIPK1 INHIBITOR AND USE THEREOF” (ARTIVILA BIOPHARMA, priority 2022, published 2025)

How the values were obtained:
[1] = biological target: T1, RIPK1 kinase (Homo sapiens, UniProt Q13546); assay: In vitro RIPK1 kinase activity IC50 assay (ADP-Glo); assay type: biochemical; conditions: ATP 10 μM; MBP substrate 100 μg/mL; 8 concentration points; read-out: IC50 range of compounds for RIPK1 kinase activity
T1 construct: purchased Promega VA7593
T1 sequence (Q13546 1-671): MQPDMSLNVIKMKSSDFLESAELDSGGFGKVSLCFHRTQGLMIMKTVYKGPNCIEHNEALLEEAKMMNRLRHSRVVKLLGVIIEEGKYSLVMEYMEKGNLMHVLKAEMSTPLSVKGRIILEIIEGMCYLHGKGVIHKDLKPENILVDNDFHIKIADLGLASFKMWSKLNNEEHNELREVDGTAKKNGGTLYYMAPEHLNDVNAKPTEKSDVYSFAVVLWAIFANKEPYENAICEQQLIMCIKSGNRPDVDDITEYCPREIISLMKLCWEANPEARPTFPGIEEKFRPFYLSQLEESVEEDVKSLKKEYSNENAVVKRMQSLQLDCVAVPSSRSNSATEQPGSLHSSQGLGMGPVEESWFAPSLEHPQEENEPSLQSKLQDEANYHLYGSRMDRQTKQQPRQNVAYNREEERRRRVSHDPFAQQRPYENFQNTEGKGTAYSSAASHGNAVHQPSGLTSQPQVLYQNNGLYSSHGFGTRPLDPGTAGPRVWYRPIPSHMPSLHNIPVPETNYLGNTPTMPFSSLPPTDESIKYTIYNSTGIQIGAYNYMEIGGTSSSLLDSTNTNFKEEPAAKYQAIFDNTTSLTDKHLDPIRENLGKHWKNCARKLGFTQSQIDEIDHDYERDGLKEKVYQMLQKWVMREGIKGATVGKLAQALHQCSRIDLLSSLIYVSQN
Description: RIPK1 kinase activity was assayed using the ADP-Glo assay and RIPK1 kinase reaction system (Promega, catalog number: VA7593). The RIPK1 kinase activity assay was performed according to the Promega kit manual.
The experimental method was briefly described as below. The concentration of RIPK1 kinase in the RIPK1 kinase reaction system was determined by kinase titration and S/B10. The compound was diluted with 1× kinase buffer D (1% DMSO), 1 μL of 1 mM compound DMSO stock solution was added to 19 μL 1× kinase buffer D, and the compound was serially diluted with 1× kinase buffer D at a ratio of 1:5, for a total of 8 concentration points, and a control with the same DMSO volume was set. RIPK1 kinase was diluted with 1× kinase buffer D. 2.5×ATP/substrate was diluted with 1× kinase buffer D. The final concentration of ATP in the kinase reaction system was 10 μM. The final concentration of MBP substrate was 100 μg/mL. 1 μL of diluted compound and 2 μL of diluted RIPK1 kinase were mixed, incubated at room temperature for 15 minutes, 2 μL of 2.5×ATP/substrate was added, mixed, and incubated at room temperature for 1 hour. 5 μL ADP-Glo reagent was added to each well and incubated at room temperature for 1 hour. 10 μL ADP detection reagent was added to each well and incubated at room temperature for another 0.5-1 hour. The chemiluminescent signal was read with a microplate reader and the kinase activity inhibition rate was calculated. IC50 was obtained by fitting the nonlinear regression curve log [inhibitor] vs. response-variable slope (four parameters) in GraphPad Prism.

[2] = tested on: U937 cells; assay: Inhibition rate of compound (1 μM) on necroptosis of U937 cells (TSZ-induced, CellTiter-Glo); assay type: cell-based; conditions: TSZ (hTNF-α, SM-164, Z-VAD-FMK) 20 hours
Outline: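 Percent inhibition comes from ATP luminescence (CellTiter-Glo), referenced to wells without TSZ and wells with TSZ alone. The compound was added to U937 cells 15 min ahead of a TNF-α/SM-164/Z-VAD-FMK mix, followed by 20 h culture at 37° C, 5% CO2.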

Compound | IC50 [1] [nM] | Inhibition rate range of compounds (1 μM) on U937 cell necroptosis [2]
CC(Cc1ccccc1)NC(=O)C(=O)N[C@H]1COc2ccc(C#CCCO)cc2N(C)C1=O (mixture of isomers) [Example 37, N^1-((S)-7-(4-hydroxybut-1-yn-1-yl)-5-methyl-4-oxo-2,3,4,5-tetrahydrobenzo[b][1,4]oxazepin-3-yl)-N^2-(1-phenylpropan-2-yl)oxalamide] | < 100 | A (A: ≥90%)
CC(NC(=O)C(=O)N[C@H]1COc2ccc(C#CCCO)cc2N(C)C1=O)c1ccccc1 (mixture of isomers) [Example 41, N^1-((S)-7-(4-hydroxybut-1-yn-1-yl)-5-methyl-4-oxo-2,3,4,5-tetrahydrobenzo[b][1,4]oxazepin-3-yl)-N^2-(1-phenylethyl)oxalamide] | < 100 | A (A: ≥90%)
CN1CCC(CC#Cc2ccc3c(c2)N(C)C(=O)[C@@H](NC(=O)C(=O)NCCc2ccccc2)CO3)C1=O (mixture of isomers) [Example 82, N^1-((3S)-5-methyl-7-(3-(1-methyl-2-oxopyrrolidin-3-yl)prop-1-yn-1-yl)-4-oxo-2,3,4,5-tetrahydrobenzo[b][1,4]oxazepin-3-yl)-N^2-phenethyloxalamide] | < 100 | A (A: ≥90%)
CN1C(=O)[C@@H](NC(=O)C(=O)NCCc2cccc(F)c2)COc2ccc(C#CCN3CCC(O)C3)cc21 (mixture of isomers) [Example 113, N^1-(3-fluorophenethyl)-N^2-((3S)-7-(3-(3-hydroxypyrrolidin-1-yl)prop-1-yn-1-yl)-5-methyl-4-oxo-2,3,4,5-tetrahydrobenzo[b][1,4]oxazepin-3-yl)oxalamide] | < 100 | A (A: ≥90%)
C[C@@H](NC(=O)C(=O)N[C@H]1COc2ccc(C#CCN3CCC(O)C3)cc2N(C)C1=O)c1ccccc1 (mixture of isomers) [Example 126, N^1-((3S)-7-(3-(3-hydroxypyrrolidin-1-yl)prop-1-yn-1-yl)-5-methyl-4-oxo-2,3,4,5-tetrahydrobenzo[b][1,4]oxazepin-3-yl)-N^2-((R)-1-phenylethyl)oxalamide] | < 100 | A (A: ≥90%)
CC(CNC(=O)C(=O)N[C@H]1COc2ccc(C#CCCO)cc2N(C)C1=O)c1ccccc1 (mixture of isomers) [Example 154, N^1-((S)-7-(4-hydroxybut-1-yn-1-yl)-5-methyl-4-oxo-2,3,4,5-tetrahydrobenzo[b][1,4]oxazepin-3-yl)-N^2-(2-phenylpropyl)oxalamide] | < 100 | A (A: ≥90%)
CN1C(=O)[C@@H](NC(=O)C(=O)NCCc2ccccc2)COc2ccc(C#Cc3cccnc3)cc21 [Example 13, (S)—N^1-(5-methyl-4-oxo-7-(pyridin-3-ylethynyl)-2,3,4,5-tetrahydrobenzo[b][1,4]oxazepin-3-yl)-N^2-phenethyloxalamide] | < 100 | A (A: ≥90%)
CN1C(=O)[C@@H](NC(=O)C(=O)NCCc2ccccc2)COc2ccc(C#Cc3ccsc3)cc21 [Example 17, (S)—N^1-(5-methyl-4-oxo-7-(thiophen-3-ylethynyl)-2,3,4,5-tetrahydrobenzo[b][1,4]oxazepin-3-yl)-N^2-phenethyloxalamide] | < 100 | A (A: ≥90%)
CN1C(=O)[C@@H](NC(=O)C(=O)NCCc2ccccc2)COc2ccc(C#C[Si](C)(C)C)cc21 [Example 18, (S)—N^1-(5-methyl-4-oxo-7-((trimethylsilyl)ethynyl)-2,3,4,5-tetrahydrobenzo[b][1,4]oxazepin-3-yl)-N^2-phenethyloxalamide] | < 100 | A (A: ≥90%)
CC#Cc1ccc2c(c1)N(C)C(=O)[C@@H](NC(=O)C(=O)NCCc1ccccc1)CO2 [Example 19, (S)—N^1-(5-methyl-4-oxo-7-(prop-1-yn-1-yl)-2,3,4,5-tetrahydrobenzo[b][1,4]oxazepin-3-yl)-N^2-phenethyloxalamide] | < 100 | A (A: ≥90%)
CN1C(=O)[C@@H](NC(=O)C(=O)NCCc2ccccc2)COc2ccc(C#CC3CCOCC3)cc21 [Example 21, (S)—N^1-(5-methyl-4-oxo-7-((tetrahydro-2H-pyran-4-yl)ethynyl)-2,3,4,5-tetrahydrobenzo[b][1,4]oxazepin-3-yl)-N^2-phenethyloxalamide] | < 100 | A (A: ≥90%)
CN1C(=O)[C@@H](NC(=O)C(=O)NCCc2ccccc2)COc2ccc(C#Cc3cnn(C)c3)cc21 [Example 22, (S)—N^1-(5-methyl-7-((1-methyl-1H-pyrazol-4-yl)ethynyl)-4-oxo-2,3,4,5-tetrahydrobenzo[b][1,4]oxazepin-3-yl)-N^2-phenethyloxalamide] | < 100 | B (B: 50-89%)
CN1C(=O)[C@@H](NC(=O)C(=O)NCCc2ccccc2)COc2ccc(C#CC3CCCNC3)cc21 (stereo partly drawn) [Example 24, N^1-((3S)-5-methyl-4-oxo-7-(piperidin-3-ylethynyl)-2,3,4,5-tetrahydrobenzo[b][1,4]oxazepin-3-yl)-N^2-phenethyloxalamide] | < 100 | A (A: ≥90%)
CN1C(=O)[C@@H](NC(=O)C(=O)NCCc2ccccc2)COc2ccc(C#Cc3cnc4cccnn34)cc21 [Example 25, (S)—N^1-(7-(imidazo[1,2-b]pyridazin-3-ylethynyl)-5-methyl-4-oxo-2,3,4,5-tetrahydrobenzo[b][1,4]oxazepin-3-yl)-N^2-phenethyloxalamide] | < 100 | A (A: ≥90%)
CN1C(=O)[C@@H](NC(=O)C(=O)NCCc2ccccc2)COc2ccc(C#CC(C)(C)O)cc21 [Example 29, (S)—N^1-(7-(3-hydroxy-3-methylbut-1-yn-1-yl)-5-methyl-4-oxo-2,3,4,5-tetrahydrobenzo[b][1,4]oxazepin-3-yl)-N^2-phenethyloxalamide] | < 100 | A (A: ≥90%)
CN1C(=O)[C@@H](NC(=O)C(=O)NCCc2ccccc2)COc2ccc(C#CCCO)cc21 [Example 31, (S)—N^1-(7-(4-hydroxybut-1-yn-1-yl)-5-methyl-4-oxo-2,3,4,5-tetrahydrobenzo[b][1,4]oxazepin-3-yl)-N^2-phenethyloxalamide] | < 100 | A (A: ≥90%)
CN1C(=O)[C@@H](NC(=O)C(=O)NCc2ccccc2)COc2ccc(C#CCCO)cc21 [Example 32, (S)—N^1-benzyl-N^2-(7-(4-hydroxybut-1-yn-1-yl)-5-methyl-4-oxo-2,3,4,5-tetrahydrobenzo[b][1,4]oxazepin-3-yl)oxalamide] | < 100 | A (A: ≥90%)
CN1C(=O)[C@@H](NC(=O)C(=O)NCCc2ccccc2F)COc2ccc(C#CCCO)cc21 [Example 33, (S)—N^1-(2-fluorophenethyl)-N^2-(7-(4-hydroxybut-1-yn-1-yl)-5-methyl-4-oxo-2,3,4,5-tetrahydrobenzo[b][1,4]oxazepin-3-yl)oxalamide] | < 100 | A (A: ≥90%)
CN1C(=O)[C@@H](NC(=O)C(=O)NCCc2cccc(F)c2)COc2ccc(C#CCCO)cc21 [Example 34, (S)—N^1-(3-fluorophenethyl)-N^2-(7-(4-hydroxybut-1-yn-1-yl)-5-methyl-4-oxo-2,3,4,5-tetrahydrobenzo[b][1,4]oxazepin-3-yl)oxalamide] | < 100 | A (A: ≥90%)
